Measured values: patent US10383880B2 (Reset Therapeutics, Inc., priority 2012, dated 2019)

System: Per2-dLuc U2OS reporter cells
Assay: Per2 assay for evaluating the potency of test compounds (high-throughput circadian assay)
Assay type: cell-based
Conditions: Homo sapiens, U2OS, stable U2OS reporter cells harboring Per2-dLuc; luminescence monitored over 4-5 days at 35° C.
Summary of the method: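 Compounds (0.5% DMSO final) were added right after serum-shock synchronization of Per2-dLuc U2OS reporter cells in minimal medium containing 1.0 mM beetle luciferin. Reporter luminescence was followed at 35 °C for 4–5 days to extract rhythm period, amplitude and phase, and EC50 values were obtained from these.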

Row | SMILES | EC50
1 | O=S1(=O)CCCCN1CC(O)Cn1c2cccc(F)c2c2c(F)cccc21 (centres unmarked) [Compound 105, N-(3-(4,5-Difluoro-9H-carbazol-9-yl)-2-hydroxypropyl)-1,2-thiazinane 1,1-dioxide] | 5200 nM
2 | CN1CCCN(CC(O)Cn2c3ccc(F)cc3c3cc(F)ccc32)S1(=O)=O (centres unmarked) [Compound 169, 2-(3-(3,6-Difluoro-9H-carbazol-9-yl)-2-hydroxypropyl)-6-methyl-1,2,6-thiadiazinane-1,1-dioxide] | 504 nM
3 | O=S(=O)(CC(F)F)N(Cc1ccco1)CC(O)Cn1c2ccccc2c2ccccc21 (centres unmarked) [Compound 8, N-(3-(9H-Carbazol-9-yl)-2-hydroxypropyl)-2,2-difluoro-N-(furan-2-ylmethyl)ethanesulfonamide] | 6960 nM
4 | CS(=O)(=O)NCC(O)Cn1c2ccc(F)cc2c2cc(F)ccc21 (centres unmarked) [Compound 154, N-(3-(3,6-Difluoro-9H-carbazol-9-yl)-2-hydroxypropyl)methanesulfonamide] | 680 nM
5 | CCN(CC(O)Cn1c2cc(F)ccc2c2ccc(F)cc21)S(C)(=O)=O (centres unmarked) [Compound 158, N-(3-(2,7-Difluoro-9H-carbazol-9-yl)-2-hydroxypropyl)-N-ethylmethanesulfonamide] | 811 nM
6 | CCCS(=O)(=O)N(Cc1ccco1)CC(O)Cn1c2ccccc2c2ccccc21 (centres unmarked) [Compound 3, N-(3-(9H-Carbazol-9-yl)-2-hydroxypropyl)-N-(furan-2-ylmethyl)propane-1-sulfonamide] | 650 nM
7 | O=S(=O)(C1CCOC1)N(Cc1ccco1)CC(O)Cn1c2ccccc2c2ccccc21 (centres unmarked) [Compound 85, N-(3-(9H-Carbazol-9-yl)-2-hydroxypropyl)-N-(furan-2-ylmethyl)tetrahydrofuran-3-sulfonamide] | 510 nM
8 | CS(=O)(=O)N(CC(O)Cn1c2ccccc2c2ccccc21)CC1CCCC1 (centres unmarked) [Compound 50, N-(3-(9H-Carbazol-9-yl)-2-hydroxypropyl)-N-(cyclopentylmethyl)methanesulfonamide] | 148 nM
9 | CC(C)N1CCCN(CC(C)(O)Cn2c3ccc(F)cc3c3cc(F)ccc32)S1(=O)=O (centres unmarked) [Compound 218, 2-(3-(3,6-Difluoro-9H-carbazol-9-yl)-2-hydroxy-2-methylpropyl)-6-isopropyl-1,2,6-thiadiazinane-1,1-dioxide] | 9780 nM
10 | CC1(C)CC1N(CC(O)Cn1c2ccccc2c2ccccc21)S(C)(=O)=O (centres unmarked) [Compound 132, N-(3-(9H-Carbazol-9-yl)-2-hydroxypropyl)-N-(2,2-dimethylcyclopropyl)methanesulfonamide] | 348 nM
11 | CS(=O)(=O)N(Cc1ccco1)CC(O)Cn1c2ccccc2c2c(F)cccc21 (centres unmarked) [Compound 239, N-(3-(4-Fluoro-9H-carbazol-9-yl)-2-hydroxy-propyl)-N-(furan-2-yl-methyl)methane-sulfonamide] | 1580 nM
12 | O=S1(=O)NCCN1CC(O)Cn1c2ccc(F)cc2c2cc(F)ccc21 (centres unmarked) [Compound 175] | 35 nM
13 | CC1CN(CC(O)Cn2c3ccc(F)cc3c3cc(F)ccc32)S(=O)(=O)C1 (centres unmarked) [Compound 194, 2-(3-(3,6-Difluoro-9H-carbazol-9-yl)-2-hydroxypropyl)-4-methylisothiazolidine-1,1-dioxide] | 78 nM
14 | CC1CCC(N(CC(O)Cn2c3ccccc3c3ccccc32)S(C)(=O)=O)CC1 (centres unmarked) [Compound 126, N-(3-(9H-Carbazol-9-yl)-2-hydroxypropyl)-N-(4-methylcyclohexyl)methanesulfonamide] | 425 nM
15 | CS(=O)(=O)N(CC(O)Cn1c2ccc(F)cc2c2cc(F)ccc21)c1ccc(-c2c[nH]cn2)cc1 (centres unmarked) [Compound 204, N-(4-(1H-Imidazol-4-yl)phenyl)-N-(3-(3,6-difluoro-9H-carbazol-9-yl)-2-hydroxypropyl)methanesulfonamide] | 2550 nM
16 | CC1(N(CC(O)Cn2c3ccccc3c3ccccc32)S(C)(=O)=O)CC1 (centres unmarked) [Compound 137, N-(3-(9H-Carbazol-9-yl)-2-hydroxypropyl)-N-(1-methylcyclopropyl)methanesulfonamide] | 76 nM
17 | CC1(N(CC(O)Cn2c3ccc(F)cc3c3cc(F)ccc32)S(C)(=O)=O)CC1 (centres unmarked) [Compound 188, N-(3-(3,6-Difluoro-9H-carbazol-9-yl)-2-hydroxypropyl)-N-(1-methylcyclopropyl)methanesulfonamide] | 147 nM
18 | CC1CC(N(CC(O)Cn2c3ccccc3c3ccccc32)S(C)(=O)=O)C1 (centres unmarked) [Compound 131, N-(3-(9H-Carbazol-9-yl)-2-hydroxypropyl)-N-(3-methylcyclobutyl)methanesulfonamide] | 79 nM
19 | CC1CN(CC(C)(O)Cn2c3ccc(F)cc3c3cc(F)ccc32)S(=O)(=O)C1 (centres unmarked) [Compound 195, 2-(3-(3,6-Difluoro-9H-carbazol-9-yl)-2-hydroxy-2-methylpropyl)-4-methylisothiazolidine-1,1-dioxide] | 254 nM
20 | CN(CC(O)Cn1c2ccc(F)cc2c2ccc(F)cc21)S(C)(=O)=O (centres unmarked) [Compound 103, N-(3-(2,6-Difluoro-9H-carbazol-9-yl)-2-hydroxypropyl)-N-methylmethanesulfonamide] | 2210 nM
21 | COCCN(CC(O)Cn1c2cc(F)ccc2c2c(F)cccc21)S(C)(=O)=O (centres unmarked) [Compound 99, N-(3-(2,5-Difluoro-9H-carbazol-9-yl)-2-hydroxypropyl)-N-(2-methoxyethyl)methanesulfonamide] | 3550 nM
22 | CCN(CC(O)Cn1c2ccc(F)cc2c2ccc(F)cc21)S(C)(=O)=O (centres unmarked) [Compound 164, N-(3-(2,6-Difluoro-9H-carbazol-9-yl)-2-hydroxypropyl)-N-ethylmethanesulfonamide] | 200 nM
23 | CC1CCCC(N(CC(O)Cn2c3ccccc3c3ccccc32)S(C)(=O)=O)C1 (centres unmarked) [Compound 142, N-(3-(9H-Carbazol-9-yl)-2-hydroxypropyl)-N-(3-methylcyclohexyl)methanesulfonamide] | 813 nM
24 | O=S(=O)(CC1CCCCO1)N(Cc1ccco1)CC(O)Cn1c2ccccc2c2ccccc21 (centres unmarked) [Compound 18, N-(3-(9H-Carbazol-9-yl)-2-hydroxypropyl)-N-(furan-2-ylmethyl)-1-(tetrahydro-2H-pyran-2-yl)methanesulfonamide] | 3760 nM
25 | CS(=O)(=O)N(CC(O)Cn1c2ccccc2c2ccccc21)c1cccc(C(N)=O)c1 (centres unmarked) [Compound 74, 3-(N-(3-(9H-Carbazol-9-yl)-2-hydroxypropyl)methylsulfonamido)benzamide] | 7620 nM
26 | O=S1(=O)CCCN1C[C@H](O)Cn1c2ccccc2c2ccccc21 [Compound 40, (R)-N-(3-(9H-Carbazol-9-yl)-2-hydroxypropyl)isothiazolidine 1,1-dioxide] | 179 nM
27 | CC(O)(CN1CCCCS1(=O)=O)Cn1c2ccc(F)cc2c2cc(F)ccc21 (centres unmarked) [Compound 116, 2-(3-(3,6-Difluoro-9H-carbazol-9-yl)-2-hydroxy-2-methylpropyl)-1,2-thiazinane 1,1-dioxide] | 540 nM
28 | CCN(CC(O)Cn1c2ccccc2c2ccccc21)S(C)(=O)=O (centres unmarked) [Compound 45, N-(3-(9H-Carbazol-9-yl)-2-hydroxypropyl)-N-ethylmethanesulfonamide] | 398 nM

Same assay, conditions: stable U2OS reporter cells harboring Per2-dLuc; luminescence monitored over 4-5 days at 35° C.

Row | SMILES | EC50
29 | CS(=O)(=O)N(CC(O)Cn1c2ccccc2c2ccccc21)C1CC2CCC1O2 (single isomer, unassigned) [Compound 140B, N-(3-(9H-Carbazol-9-yl)-2-hydroxypropyl)-N-(7-oxabicyclo[2.2.1]heptan-2-yl)methanesulfonamide] | 823 nM
